# According to patent US8481555B2, “Aza-bicyclic amine N-oxide compounds as alpha-7 nicotinic acetylcholine receptor ligand pro-drugs” (Bristol-Myers Squibb Company, priority 2010, dated 2013):
# Like-named read-outs stand apart in the source and are kept apart here.
# How the values were obtained:
# [1] = Conversion of Compound B to Compound A in the rat (intra-duodenal infusion, portal vein sampling); type: in vivo, male Sprague-Dawley rats; settings: intra-duodenal infusion of Compound B 10 mg/kg, analyte as labelled; for AUC(0-t): 10 mg/kg; for AUC(0-t) / Cmax: fasted, PVC collection, plasma
# Protocol: (§1) The following section details the liquid chromatography with tandem mass spectrometry (LC/MS/MS)-based bioanalytical methods developed to support the analysis of the in vivo biological samples (brain, plasma, urine) from studies conducted in the dog and rat.
# (§2) Sample Preparation: Blood, Plasma, Serum, Urine. Plasma and blood samples were prepared as described below. If dilutions were required, an aliquot of the sample was diluted into the respective matrix. For the analysis of urine samples, an aliquot was first diluted into blank plasma and then treated as described below.
# (§3) Sample preparation was conducted manually or on a Packard MultiPROBE automated liquid handler. The internal standard (IS) solution (1000 nM (S,E)-5-bromo-N-(1′-azaspiro[oxazolidine-5,3′-bicyclo[2.2.2]octane]-2-ylidene)pyrazin-2-amine) was prepared in acetonitrile. Two hundred microliters of the IS solution was added to each well of a Strata protein precipitation filter plate (Phenomenex, Torrance, Calif.). Biological samples (60 μL) were added to the filter plate. The filter plate was attached atop a standard 96 well plate and the entire unit was centrifuged at 1100 rpm for 2 minutes. The supernatant was collected in the 96 well plate. Five microliters of each sample was injected onto the LC/MS/MS system for analysis.
# (§4) Instrumentation. The UHPLC system used was an Agilent 1200 series (Agilent Technologies, Wilmington, Del.) coupled with CTC Analytics HTS PAL Auto Sampler (Leap Technologies, Carrboro, N.C.) that was equipped with a cooling stack so that samples were maintained at 10° C. during analysis. The analytical column used was a Waters Acquity HSS T3 (2.1×50 mm, 1.8 um particles) at 60° C. The mobile phase, which consisted of 0.1% formic acid in water (A) and 0.1% formic acid in acetonitrile (B), was delivered at a flow rate of 0.6 mL/min.
# (§5) The UHPLC was interfaced to an API4000 QTrap LC/MS/MS System® (AppliedBiosystems/MDS Sciex, Foster City, Calif.) equipped with an electrospray ionization interface operating in the positive ionization mode. The source temperature was 500° C. Detection of each analyte was achieved through selected reaction monitoring. Ions representing the precursor (M+H)^+ species for Compound A, Compound B, and the IS were selected in quadrupole 1 and collisionally dissociated with nitrogen to generate specific product ions, which were subsequently monitored by quadrupole 3.
# (§6) Standard Curve Ranges. Unless otherwise specified, the analysis of Compound A and Compound B were conducted against a standard curve ranging from 0.6 to 1,250 nM and 4.8 to 5,000 nM, respectively. The standard curve was fitted with a linear regression weighted by the square of the reciprocal concentration (1/x^2). Standards were analyzed in duplicate. Quality control samples were prepared in blank biological matrix at concentration levels within the range of the standard curve. The predicted concentrations of more than 80% of the QCs from various different matrices were within 20% of nominal values, indicating acceptable assay performance.
# Conversion of N-oxide, Compound B, to Compound A in the rat. The conversion of Compound B to Compound A was evaluated in male Sprague-Dawley rats (260-280 g) Animals (N=3 per group) received Compound B as an intra-duodenal infusion (10 mg/kg over 10 minutes) via an indwelling intra-duodenal cannula (IDC) with collection via the intra-portal vein. Serial blood samples were obtained predose and at 0.17, 0.25, 0.5, 0.75, 1, 2, 4, 6, 8, and 24 hours post dose. Plasma samples, obtained by centrifugation at 4° C. (1500-2000×g), were stored at −20° C. until analysis.
# All conversion studies in rats were performed in animals containing indwelling cannulas in the duodenum and portal vein. The studies were designed to isolate the role of the GI tract in the reduction of Compound B. Table IV summarizes the exposure of Compound B and Compound A in the portal vein following an intra-duodenal infusion of Compound B in the rat. […]
# [2] = Conversion of Compound B to Compound A in the dog (IV infusion and oral gavage, crossover); type: in vivo, male beagle dogs; settings: plasma
# [3] = as above; type: in vivo, male beagle dogs; settings: for AUC(0-t): analyte as labelled, read-out: AUC(0-24 h)
# Protocol: as §1, §2, §3, §4, §5, §6
# Conversion of N-oxide, Compound B, to Compound A in the dog. The conversion of Compound B to Compound A was evaluated in a crossover-design study in male beagle dogs. Three animals (5 to 8 kg) received Compound B by IV infusion (1 mg/kg over 5 minutes) via a cephalic vein and by oral gavage (5 mg/kg), with a 1-week washout between treatments. Serial blood samples (˜0.3 mL) were collected from a saphenous vein predose and at (0.083, 0.17 IV only), 0.25, 0.5, 0.75, 1, 2, 4, 6, 8, and 24 hours post dose, followed by centrifugation at 4° C. (1500-2000×g) to obtain plasma. Samples were stored at −20° C. until analysis by LC/MS/MS.
# Table VI summarizes the PK parameters of Compound B and the appearance of Compound A following a single dose in dogs. Following either an IV or PO dose, the conversion of Compound B to Compound A was observed; however, it was more extensive after oral dosing. […]
# [4] = male, Sprague-Dawley, in vivo, read-out: AUC(0-4)
# [5] = male, Sprague-Dawley, in vivo, read-out: Plasma concentration in the portal vein
# [6] = male, beagle, fasted, oral gavage of Compound B 5 mg/kg, plasma
# [7] = male, beagle, fed, IV infusion of Compound B 1 mg/kg, plasma
# [8] = fed, IV infusion of Compound B 1 mg/kg, plasma
smiles,measurement,setting,value
"c1ccc2cc(NC3=NC[C@@]4(CN5CCC4CC5)O3)ncc2c1 [Compound A, (R)—N-(isoquinolin-3-yl)-4H-1′-azaspiro[oxazole-5,3′-bicyclo[2.2.2]octan]-2-amine]",AUC(0-t),[1]; [4],1.22 ± 1.1 µM·h
same,AUC(0-t),"[1]; male, Sprague-Dawley, in vivo, read-out: AUC(0-24 h)",2.55 ± 1.93 µM·h
same,Cmax,"[1]; male, Sprague-Dawley, in vivo",860 ± 340 nM
same,concentration at 0.167 h,[1]; [5],3 nM
same,concentration at 0.25 h,[1]; [5],7 nM
same,concentration at 0.5 h,[1]; [5],112 nM
same,concentration at 0.75 h,[1]; [5],207 nM
same,concentration at 1 h,[1]; [5],448 nM
same,concentration at 2 h,[1]; [5],750 nM
same,concentration at 4 h,[1]; [5],455 nM
same,concentration at 6 h,"[1]; male, Sprague-Dawley, in vivo, 6 hours, read-out: Plasma concentration in the portal vein",434 nM
same,concentration at 8 h,"[1]; male, Sprague-Dawley, in vivo, 8 hours, read-out: Plasma concentration in the portal vein",125 nM
same,concentration at 24 h,"[1]; male, Sprague-Dawley, in vivo, 24 hours, read-out: Plasma concentration in the portal vein",6 nM
same,AUC,"[2]; male, beagle, PO dosing of Compound B (10 mg/kg as printed in text), read-out: plasma AUC of Compound A after PO dosing of Compound B",0.7 µM·h
same,AUC,"[2]; PO administration of Compound A alone, read-out: oral AUC of Compound A following PO administration of Compound A alone",1.74 µM·h
same,AUC of Compound A after IV Compound B as percent of the AUC of Compound A after IV administration of Compound A,[3]; IV,~3%
same,AUC of Compound A after PO Compound B as percent of the oral AUC of Compound A after PO Compound A alone,[3]; PO,roughly 40%
same,AUC(0-t),[3]; [6],0.7 ± 0.2 µM·h
same,AUC(0-t),[3]; [7],0.03 µM·h
"[O-][N+]12CCC(CC1)[C@]1(CN=C(Nc3cc4ccccc4cn3)O1)C2 [Compound B, (S)-2-(Isoquinolin-3-ylamino)-4H-1′-azaspiro[oxazole-5,3′-bicyclo[2.2.2]octane]1′-oxide]",Plasma concentration in the portal vein,[1]; 6 hours,< LLQ
same,Plasma concentration in the portal vein,[1]; 8 hours,< LLQ
same,Plasma concentration in the portal vein,[1]; 24 hours,< LLQ
same,AUC(0-t),[1]; [4],0.34 ± 0.04 µM·h
same,Cmax,"[1]; male, Sprague-Dawley, in vivo",760 ± 240 nM
same,concentration at 0.167 h,[1]; [5],601 nM
same,concentration at 0.25 h,[1]; [5],758 nM
same,concentration at 0.5 h,[1]; [5],177 nM
same,concentration at 0.75 h,[1]; [5],90 nM
same,concentration at 1 h,[1]; [5],69 nM
same,concentration at 2 h,[1]; [5],52 nM
same,concentration at 4 h,[1]; [5],18 nM
same,CLTp,[3]; [8],13.7 ± 4.0 mL/min/kg
same,T-HALF,[3]; [8],9.4 ± 6.5 h
same,AUC(0-inf),[3]; [6],5.69 ± 0.39 µM·h
same,Cmax,[3]; [6],850 ± 460 nM
same,AUC(0-t),[3]; [6],5.16 ± 0.68 µM·h
same,AUC(0-inf),[3]; [7],3.94 ± 1.01 µM·h
same,AUC(0-t),[3]; [7],3.84 ± 0.92 µM·h
same,Vd,"[3]; male, beagle, fed, IV infusion of Compound B 1 mg/kg, plasma, read-out: Vss",2 ± 0.2 L/kg
same,bioavailability,"[3]; male, beagle, plasma, fasted, oral gavage of Compound B 5 mg/kg",27 ± 15%
